Measured values as given in the kinase profiling compilation of Christmann-Franck et al. (2016).

Legend:
Assay in all cases: radiometric filter-binding kinase assay, Kinase HotSpot
Details in all cases: compound 0.5 µM; ATP 10 µM
[1] = biological target: ADRBK2 (human) (UniProt P35626)
[2] = biological target: CDK6 CCND1 (human) (UniProt Q00534+P24385)
[3] = biological target: STK25 (human) (UniProt O00506)
[4] = biological target: CAMK1 (human) (UniProt Q14012)
[5] = biological target: MARK2 (human) (UniProt Q7KZI7)
[6] = biological target: CLK4 (human) (UniProt Q9HAZ1)
[7] = biological target: PLK1 (human) (UniProt P53350)
[8] = biological target: MAP3K11 (human) (UniProt Q16584)
[9] = biological target: TAOK1 (human) (UniProt Q7L7X3)
[10] = biological target: NTRK1 (human) (UniProt P04629)
[11] = biological target: PAK4 (human) (UniProt O96013)
[12] = biological target: PRKG2 (human) (UniProt Q13237)
[13] = biological target: PAK3 (human) (UniProt O75914)
[14] = biological target: RPS6KA3 KD1 KD2 (human) (UniProt P51812)
[15] = biological target: PAK2 (human) (UniProt Q13177)
[16] = biological target: CSNK1A1 (human) (UniProt P48729)
[17] = biological target: WEE1 (human) (UniProt P30291)
[18] = biological target: FGFR4 (human) (UniProt P22455)
[19] = biological target: AXL (human) (UniProt P30530)
[20] = biological target: MAPKAPK5 (human) (UniProt Q8IW41)
[21] = biological target: LTK (human) (UniProt P29376)
[22] = biological target: STK17A (human) (UniProt Q9UEE5)
[23] = biological target: SRMS (human) (UniProt Q9H3Y6)
[24] = biological target: MST1R (human) (UniProt Q04912)
[25] = biological target: ROCK2 (human) (UniProt O75116)
[26] = biological target: GRK6 (human) (UniProt P43250)
[27] = biological target: ZAP70 (human) (UniProt P43403)
[28] = biological target: PRKCG (human) (UniProt P05129)
[29] = biological target: NEK9 (human) (UniProt Q8TD19)
[30] = biological target: STK24 (human) (UniProt Q9Y6E0)
[31] = biological target: SIK2 (human) (UniProt Q9H0K1)
[32] = biological target: PLK2 (human) (UniProt Q9NYY3)
[33] = biological target: NEK1 (human) (UniProt Q96PY6)
[34] = biological target: RPS6KA1 KD1 KD2 (human) (UniProt Q15418)
[35] = biological target: LRRK2 (human) (UniProt Q5S007)
[36] = biological target: MAP3K10 (human) (UniProt Q02779)
[37] = biological target: CDK9 CCNT1 (human) (UniProt P50750+O60563)
[38] = biological target: RET (human) (UniProt P07949)
[39] = biological target: PDPK1 (human) (UniProt O15530)
[40] = biological target: NEK7 (human) (UniProt Q8TDX7)
[41] = biological target: EPHB3 (human) (UniProt P54753)

CDK9 CCNT1 (human), sequence (O60563 whole entry, looked up): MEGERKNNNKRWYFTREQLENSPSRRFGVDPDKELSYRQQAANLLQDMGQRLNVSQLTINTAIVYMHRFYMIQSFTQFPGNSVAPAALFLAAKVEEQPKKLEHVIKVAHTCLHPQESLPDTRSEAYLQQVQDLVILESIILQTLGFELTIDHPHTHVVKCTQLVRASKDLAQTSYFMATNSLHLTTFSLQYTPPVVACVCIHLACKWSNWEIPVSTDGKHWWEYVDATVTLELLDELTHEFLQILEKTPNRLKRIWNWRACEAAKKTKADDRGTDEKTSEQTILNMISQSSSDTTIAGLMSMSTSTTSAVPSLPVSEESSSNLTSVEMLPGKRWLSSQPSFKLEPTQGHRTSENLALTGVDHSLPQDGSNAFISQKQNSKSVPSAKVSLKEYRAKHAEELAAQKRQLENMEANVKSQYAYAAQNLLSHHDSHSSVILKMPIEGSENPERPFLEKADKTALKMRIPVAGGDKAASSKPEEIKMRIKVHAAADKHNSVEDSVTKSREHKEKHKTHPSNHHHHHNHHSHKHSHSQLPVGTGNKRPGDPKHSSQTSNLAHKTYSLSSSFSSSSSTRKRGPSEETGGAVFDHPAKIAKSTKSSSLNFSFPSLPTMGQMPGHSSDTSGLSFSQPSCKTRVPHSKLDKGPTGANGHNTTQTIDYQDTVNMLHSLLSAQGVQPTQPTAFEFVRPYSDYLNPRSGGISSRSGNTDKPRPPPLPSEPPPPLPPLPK
CDK9 CCNT1 (human), sequence (P50750 whole entry, looked up): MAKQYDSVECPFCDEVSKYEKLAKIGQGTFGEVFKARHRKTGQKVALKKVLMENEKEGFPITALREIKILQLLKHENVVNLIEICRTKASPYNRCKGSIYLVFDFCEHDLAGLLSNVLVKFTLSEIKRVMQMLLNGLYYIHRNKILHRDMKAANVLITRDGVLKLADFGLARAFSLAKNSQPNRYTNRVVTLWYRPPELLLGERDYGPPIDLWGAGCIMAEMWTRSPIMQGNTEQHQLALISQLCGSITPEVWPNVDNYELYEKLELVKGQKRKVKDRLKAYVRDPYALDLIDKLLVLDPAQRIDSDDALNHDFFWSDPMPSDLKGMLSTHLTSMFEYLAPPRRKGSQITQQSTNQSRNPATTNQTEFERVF
STK17A (human), sequence (Q9UEE5 whole entry, looked up): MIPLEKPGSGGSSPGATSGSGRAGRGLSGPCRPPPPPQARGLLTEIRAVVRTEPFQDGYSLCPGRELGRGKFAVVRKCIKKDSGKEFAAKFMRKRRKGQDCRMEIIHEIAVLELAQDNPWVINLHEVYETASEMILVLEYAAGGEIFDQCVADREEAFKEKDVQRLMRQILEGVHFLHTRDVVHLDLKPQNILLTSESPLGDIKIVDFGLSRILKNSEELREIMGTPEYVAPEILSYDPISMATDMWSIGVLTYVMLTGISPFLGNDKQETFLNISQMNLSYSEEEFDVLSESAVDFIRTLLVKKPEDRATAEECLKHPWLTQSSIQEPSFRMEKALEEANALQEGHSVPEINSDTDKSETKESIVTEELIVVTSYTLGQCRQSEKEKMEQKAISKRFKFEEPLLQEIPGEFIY
PLK1 (human), sequence (P53350 whole entry, looked up): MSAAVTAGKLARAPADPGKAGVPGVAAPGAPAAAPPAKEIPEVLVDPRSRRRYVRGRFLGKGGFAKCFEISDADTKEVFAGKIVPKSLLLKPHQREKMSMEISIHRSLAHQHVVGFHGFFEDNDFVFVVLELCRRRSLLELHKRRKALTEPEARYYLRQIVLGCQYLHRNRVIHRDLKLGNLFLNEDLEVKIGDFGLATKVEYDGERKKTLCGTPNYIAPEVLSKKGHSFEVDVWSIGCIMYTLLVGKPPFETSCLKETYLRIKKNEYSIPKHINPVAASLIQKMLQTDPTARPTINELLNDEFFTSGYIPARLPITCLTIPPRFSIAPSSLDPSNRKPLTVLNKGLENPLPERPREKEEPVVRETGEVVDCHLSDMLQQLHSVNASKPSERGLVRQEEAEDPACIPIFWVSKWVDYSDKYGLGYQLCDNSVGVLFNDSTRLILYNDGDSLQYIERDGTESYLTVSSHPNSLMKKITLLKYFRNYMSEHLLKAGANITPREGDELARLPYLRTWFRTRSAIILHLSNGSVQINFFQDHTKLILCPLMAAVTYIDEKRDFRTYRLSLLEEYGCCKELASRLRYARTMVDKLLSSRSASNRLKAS
NEK9 (human), sequence (Q8TD19 whole entry, looked up): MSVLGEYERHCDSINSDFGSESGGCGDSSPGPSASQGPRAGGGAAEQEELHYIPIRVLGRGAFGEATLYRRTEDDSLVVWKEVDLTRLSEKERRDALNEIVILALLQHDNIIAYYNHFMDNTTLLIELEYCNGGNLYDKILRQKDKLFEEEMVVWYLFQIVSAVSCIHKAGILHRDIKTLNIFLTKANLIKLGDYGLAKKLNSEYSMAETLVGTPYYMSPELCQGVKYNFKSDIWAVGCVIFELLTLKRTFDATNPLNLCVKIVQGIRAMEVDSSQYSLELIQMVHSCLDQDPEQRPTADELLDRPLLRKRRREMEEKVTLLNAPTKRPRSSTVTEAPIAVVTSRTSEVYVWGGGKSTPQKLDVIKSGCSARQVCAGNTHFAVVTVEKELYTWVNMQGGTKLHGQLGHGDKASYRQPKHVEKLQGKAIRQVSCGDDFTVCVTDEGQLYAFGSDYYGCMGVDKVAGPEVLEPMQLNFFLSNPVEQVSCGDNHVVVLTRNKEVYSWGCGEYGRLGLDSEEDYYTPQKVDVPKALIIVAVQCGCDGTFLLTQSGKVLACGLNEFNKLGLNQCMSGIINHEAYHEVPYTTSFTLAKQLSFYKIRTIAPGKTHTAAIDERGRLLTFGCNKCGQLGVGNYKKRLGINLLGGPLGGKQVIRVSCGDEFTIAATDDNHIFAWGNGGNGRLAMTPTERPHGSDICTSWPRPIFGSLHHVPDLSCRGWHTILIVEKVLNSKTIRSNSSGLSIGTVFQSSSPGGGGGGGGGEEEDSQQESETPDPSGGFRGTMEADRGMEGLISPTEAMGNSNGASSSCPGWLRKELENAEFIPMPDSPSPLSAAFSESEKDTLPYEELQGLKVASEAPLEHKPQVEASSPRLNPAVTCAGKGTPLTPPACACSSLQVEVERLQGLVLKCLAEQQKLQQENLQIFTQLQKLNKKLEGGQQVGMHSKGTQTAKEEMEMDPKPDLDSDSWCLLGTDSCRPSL
NTRK1 (human), sequence (P04629 whole entry, looked up): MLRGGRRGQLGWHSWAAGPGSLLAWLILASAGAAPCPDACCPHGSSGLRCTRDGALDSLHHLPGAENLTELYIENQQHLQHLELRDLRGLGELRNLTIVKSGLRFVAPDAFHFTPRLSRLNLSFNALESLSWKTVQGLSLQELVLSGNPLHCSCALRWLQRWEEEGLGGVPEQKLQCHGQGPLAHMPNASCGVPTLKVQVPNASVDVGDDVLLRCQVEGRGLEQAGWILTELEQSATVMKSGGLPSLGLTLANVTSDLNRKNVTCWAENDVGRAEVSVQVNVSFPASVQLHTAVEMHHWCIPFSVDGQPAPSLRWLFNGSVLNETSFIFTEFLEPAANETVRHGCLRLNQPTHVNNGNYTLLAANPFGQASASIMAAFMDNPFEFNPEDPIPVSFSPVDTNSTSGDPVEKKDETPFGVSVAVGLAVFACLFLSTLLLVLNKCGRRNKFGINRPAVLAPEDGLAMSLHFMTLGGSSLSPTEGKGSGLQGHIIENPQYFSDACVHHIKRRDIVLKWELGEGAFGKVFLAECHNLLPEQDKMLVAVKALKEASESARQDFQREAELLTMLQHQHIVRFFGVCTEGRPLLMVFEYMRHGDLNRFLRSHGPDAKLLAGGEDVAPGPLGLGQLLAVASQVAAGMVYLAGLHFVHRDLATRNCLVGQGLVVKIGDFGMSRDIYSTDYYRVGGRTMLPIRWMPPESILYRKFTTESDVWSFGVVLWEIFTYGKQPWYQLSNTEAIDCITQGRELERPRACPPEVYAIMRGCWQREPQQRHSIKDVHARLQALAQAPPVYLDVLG
CDK6 CCND1 (human), sequence (P24385 whole entry, looked up): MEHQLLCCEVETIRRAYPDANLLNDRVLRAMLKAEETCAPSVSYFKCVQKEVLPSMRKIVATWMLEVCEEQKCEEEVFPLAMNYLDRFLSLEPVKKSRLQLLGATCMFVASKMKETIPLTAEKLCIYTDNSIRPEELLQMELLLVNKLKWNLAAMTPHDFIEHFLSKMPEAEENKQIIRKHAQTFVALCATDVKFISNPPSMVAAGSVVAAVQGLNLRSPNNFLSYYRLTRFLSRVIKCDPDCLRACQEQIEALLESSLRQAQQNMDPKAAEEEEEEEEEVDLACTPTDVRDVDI
CDK6 CCND1 (human), sequence (Q00534 whole entry, looked up): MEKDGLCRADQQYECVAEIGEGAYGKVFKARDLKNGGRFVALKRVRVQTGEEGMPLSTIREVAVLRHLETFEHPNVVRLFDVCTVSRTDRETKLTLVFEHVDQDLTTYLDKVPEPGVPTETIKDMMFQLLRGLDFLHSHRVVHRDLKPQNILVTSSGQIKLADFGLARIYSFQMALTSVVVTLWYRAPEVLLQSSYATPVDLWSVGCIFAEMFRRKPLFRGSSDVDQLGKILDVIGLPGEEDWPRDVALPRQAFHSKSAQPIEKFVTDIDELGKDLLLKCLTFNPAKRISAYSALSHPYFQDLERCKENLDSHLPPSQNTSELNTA
SRMS (human), sequence (Q9H3Y6 whole entry, looked up): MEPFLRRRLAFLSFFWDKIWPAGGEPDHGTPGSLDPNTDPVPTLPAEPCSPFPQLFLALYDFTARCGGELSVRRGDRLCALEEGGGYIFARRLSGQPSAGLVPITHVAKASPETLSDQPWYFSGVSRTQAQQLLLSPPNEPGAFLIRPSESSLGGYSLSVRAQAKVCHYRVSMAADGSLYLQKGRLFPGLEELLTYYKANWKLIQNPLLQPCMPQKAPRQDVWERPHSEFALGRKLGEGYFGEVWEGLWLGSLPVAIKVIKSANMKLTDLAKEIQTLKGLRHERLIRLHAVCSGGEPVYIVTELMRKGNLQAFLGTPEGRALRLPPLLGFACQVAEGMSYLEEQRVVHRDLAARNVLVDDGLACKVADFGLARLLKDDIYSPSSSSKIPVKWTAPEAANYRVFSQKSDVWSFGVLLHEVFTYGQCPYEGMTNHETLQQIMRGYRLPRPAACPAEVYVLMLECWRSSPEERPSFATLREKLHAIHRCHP

Question: Which results are given for `CCCCc1c(-c2ccc(O)cc2)[nH]c2nccnc12`?
Answer: residual activity [1]: 96.2%; residual activity [2]: 61.6%; residual activity [3]: 91.4%; residual activity [4]: 92.5%; residual activity [5]: 76.1%; residual activity [6]: 64.3%; residual activity [7]: 96.6%; residual activity [8]: 32.5%; residual activity [9]: 70.9%; residual activity [10]: 99.6%; residual activity [11]: 108%; residual activity [12]: 92.6%; residual activity [13]: 97.7%; residual activity [14]: 90.8%; residual activity [15]: 84.5%; residual activity [16]: 92.9%; residual activity [17]: 94.6%; residual activity [18]: 91.8%; residual activity [19]: 103%; residual activity [20]: 93.1%; residual activity [21]: 84.1%; residual activity [22]: 84.9%; residual activity [23]: 95.4%; residual activity [24]: 101%; residual activity [25]: 97.5%; residual activity [26]: 83.5%; residual activity [27]: 94.4%; residual activity [28]: 95.1%; residual activity [29]: 105%; residual activity [30]: 83.6%; residual activity [31]: 95.9%; residual activity [32]: 83.9%; residual activity [33]: 92.2%; residual activity [34]: 82.6%; residual activity [35]: 80%; residual activity [36]: 74.3%; residual activity [37]: 45.9%; residual activity [38]: 52.6%; residual activity [39]: 95.9%; residual activity [40]: 111%

Question: What does the source list for `O=S(=O)(NCCNC/C=C/c1ccc(Br)cc1)c1cccc2cnccc12`?
Answer: residual activity [1]: 101%; residual activity [2]: 77.9%; residual activity [3]: 104%; residual activity [4]: 107%; residual activity [5]: 89.3%; residual activity [6]: 119%; residual activity [7]: 98.7%; residual activity [8]: 95.6%; residual activity [9]: 101%; residual activity [10]: 84.9%; residual activity [11]: 98.9%; residual activity [12]: 56.9%; residual activity [13]: 103%; residual activity [14]: 70.9%; residual activity [15]: 78.6%; residual activity [16]: 57.9%; residual activity [17]: 84.6%; residual activity [18]: 85.3%; residual activity [41]: 92.5%; residual activity [19]: 112%; residual activity [20]: 90.2%; residual activity [21]: 94.7%; residual activity [22]: 100%; residual activity [23]: 97.8%; residual activity [24]: 97.4%; residual activity [25]: 15.4%; residual activity [26]: 93.5%; residual activity [27]: 97.9%; residual activity [28]: 83.8%; residual activity [29]: 99.3%; residual activity [30]: 72%; residual activity [31]: 95%; residual activity [33]: 94.4%; residual activity [34]: 68.4%; residual activity [35]: 86.2%; residual activity [36]: 85.5%; residual activity [37]: 87.8%; residual activity [38]: 102%; residual activity [39]: 94.1%; residual activity [40]: 96.9%
